Results as given in ChEMBL document CHEMBL5634151, “Anti-adipogenic action of a novel oxazole derivative through activation of AMPK pathway” (Eur J Med Chem, 2023).
The source made the active and inactive calls. No cut-off for these calls is given here.

Experiments:
3T3-L1 [1] = test: Cytotoxicity against mouse 3T3-L1 pre-adipocyte cells assessed as reduction in cell viability >20 uM incubated for 48 hrs by MTT assay; type: toxicity, cell-based; conditions: 3t3-l1, 48 h
3T3-L1 [2] = test: Anti-adipogenic activity in MDI-cocktail differentiated mouse 3T3-L1 pre-adipocyte cells assessed as inhibition of adipogenesis at 30 uM by Oil Red O staining based microscopic analysis; type: functional, cell-based
3T3-L1 [3] = test: Anti-adipogenic activity in MDI-cocktail differentiated mouse 3T3-L1 pre-adipocyte cells assessed as inhibition of adipogenesis by Oil Red O staining based microscopic analysis; type: functional, cell-based
3T3-L1 [4] = test: Anti-adipogenic activity in MDI-cocktail differentiated mouse 3T3-L1 pre-adipocyte cells assessed as inhibition of adipogenesis at 20 uM by Oil Red O staining based microscopic analysis relative to control; type: functional
3T3-L1 [5] = test: Cytotoxicity against mouse 3T3-L1 pre-adipocyte cells assessed as reduction in cell viability at 20 uM incubated for 48 hrs by MTT assay; type: toxicity, cell-based; conditions: 3t3-l1, 48 h

SMILES | Activity (3T3-L1 [1]) | Activity (3T3-L1 [5]) | also measured
FC(F)(F)c1ccc(C[n+]2cccc(-c3ncc(-c4ccccc4)o3)c2)cc1.[Br-] | Toxic | – | –
CC(C)=CCOc1ccc(-c2cnc(-c3cccnc3)o2)cc1 | – | – | Activity (3T3-L1 [2]): Active; IC50 (3T3-L1 [3]; read-out: IC50): 103 µM; IC50 (3T3-L1 [3]; read-out: pIC50 (converted)): 104 µM
Clc1ccc(C[n+]2cccc(-c3ncc(-c4ccc(Cl)cc4)o3)c2)cc1.[Br-] | Toxic | – | –
Cc1ccc(-c2cnc(-c3ccc[n+](Cc4ccc(C(F)(F)F)cc4)c3)o2)cc1.[Br-] | Toxic | Non-Toxic | inhibition at 20 µM (3T3-L1 [4]): > 70%
CC(C)=CC[n+]1cccc(-c2ncc(-c3ccccc3)o2)c1.[Br-] | Toxic | – | –
COc1ccc(-c2cnc(-c3ccc[n+](Cc4ccc(Cl)cc4)c3)o2)cc1.[Br-] | Toxic | – | –
Cc1ccc(-c2cnc(-c3ccc[n+](Cc4ccc(Cl)cc4)c3)o2)cc1.[Br-] | Toxic | – | –
Clc1ccc(C[n+]2cccc(-c3ncc(-c4ccccc4)o3)c2)cc1Cl.[Br-] | Toxic | Non-Toxic | inhibition at 20 µM (3T3-L1 [4]): > 70%
Br.COc1ccc(-c2cnc(-c3ccc[n+](Cc4ccc([N+](=O)[O-])cc4)c3)o2)cc1 | Toxic | – | –
Br.O=[N+]([O-])c1ccc(C[n+]2cccc(-c3ncc(-c4ccc(Cl)cc4)o3)c2)cc1 | Toxic | – | –
COc1ccc(-c2cnc(-c3ccc[n+](Cc4ccc(F)cc4)c3)o2)cc1.[Br-] | Toxic | – | –
Fc1ccc(C[n+]2cccc(-c3ncc(-c4ccccc4)o3)c2)cc1.[Br-] | Toxic | – | –
Cc1cccc(C[n+]2cccc(-c3ncc(-c4ccc(Cl)cc4)o3)c2)c1.[Br-] | Toxic | Non-Toxic | inhibition at 20 µM (3T3-L1 [4]): > 70%
Cc1cccc(C[n+]2cccc(-c3ncc(-c4ccccc4)o3)c2)c1.[Br-] | Toxic | – | –
CC(C)=CCC/C(C)=C\C[n+]1cccc(-c2ncc(-c3ccc(Cl)cc3)o2)c1.[Br-] | Toxic | Toxic | –
COc1ccc(-c2cnc(-c3ccc[n+](Cc4ccc(Cl)c(Cl)c4)c3)o2)cc1.[Br-] | Toxic | Non-Toxic | inhibition at 20 µM (3T3-L1 [4]): > 70%

SMILES | Activity (3T3-L1 [1]) | Activity (3T3-L1 [5]) | also measured
CC(C)=CCC/C(C)=C\C[n+]1cccc(-c2ncc(-c3ccc(C)cc3)o2)c1.[Br-] | Toxic | Toxic | –
Clc1ccc(-c2cnc(-c3ccc[n+](Cc4ccc(Cl)c(Cl)c4)c3)o2)cc1.[Br-] | Toxic | Toxic | –
Br.O=[N+]([O-])c1ccc(C[n+]2cccc(-c3ncc(-c4ccccc4)o3)c2)cc1 | Toxic | – | –
CC(C)=CC[n+]1cccc(-c2ncc(-c3ccc(C)cc3)o2)c1.[Br-] | Toxic | Toxic | –
COc1ccc(-c2cnc(-c3ccc[n+](Cc4ccc(C(F)(F)F)cc4)c3)o2)cc1.[Br-] | Toxic | – | –
COc1ccc(-c2cnc(-c3ccc[n+](CC=C(C)C)c3)o2)cc1.[Br-] | Toxic | – | –
COc1ccc(-c2cnc(-c3ccc[n+](Cc4cccc(C)c4)c3)o2)cc1.[Br-] | Toxic | – | –
FC(F)(F)c1ccc(C[n+]2cccc(-c3ncc(-c4ccc(Cl)cc4)o3)c2)cc1.[Br-] | Toxic | – | –
COc1ccc(-c2cnc(-c3ccc[n+](C/C=C(/C)CCC=C(C)C)c3)o2)cc1.[Br-] | Toxic | Toxic | –
Cc1ccc(-c2cnc(-c3ccc[n+](Cc4ccc(F)cc4)c3)o2)cc1.[Br-] | Toxic | – | –
Br.Cc1ccc(-c2cnc(-c3ccc[n+](Cc4ccc([N+](=O)[O-])cc4)c3)o2)cc1 | Toxic | – | –
Cc1ccc(-c2cnc(-c3ccc[n+](Cc4ccc(Cl)c(Cl)c4)c3)o2)cc1.[Br-] | Toxic | Toxic | –
CC(C)=CC[n+]1cccc(-c2ncc(-c3ccc(Cl)cc3)o2)c1.[Br-] | Toxic | – | –
Clc1ccc(C[n+]2cccc(-c3ncc(-c4ccccc4)o3)c2)cc1.[Br-] | Toxic | – | –
Fc1ccc(C[n+]2cccc(-c3ncc(-c4ccc(Cl)cc4)o3)c2)cc1.[Br-] | Toxic | – | –
